Assay results published in patent US6423518B1, “Design and production of mutant 2,5-diketo-D-gluconic acid reductase enzymes with altered cofactor dependency” (Rutgers, the State University, priority 2000, dated 2002).

Tests used:
Assay in all cases: Kinetic determination with purified enzyme, NADH cofactor, initial rates (microtiter plate)
Assay type in all cases: biochemical
[1] = target: T1, 2,5-diketo-D-gluconic acid reductase A (Corynebacterium sp., wild type SEQ ID NO:1) variant K232M (Corynebacterium sp., UniProt P06632, K232M)
T1 construct: GroES fragment (N); made in house; host or cells: E. coli JM109
T1 sequence (P06632 whole entry K232M, the tested form may be a part): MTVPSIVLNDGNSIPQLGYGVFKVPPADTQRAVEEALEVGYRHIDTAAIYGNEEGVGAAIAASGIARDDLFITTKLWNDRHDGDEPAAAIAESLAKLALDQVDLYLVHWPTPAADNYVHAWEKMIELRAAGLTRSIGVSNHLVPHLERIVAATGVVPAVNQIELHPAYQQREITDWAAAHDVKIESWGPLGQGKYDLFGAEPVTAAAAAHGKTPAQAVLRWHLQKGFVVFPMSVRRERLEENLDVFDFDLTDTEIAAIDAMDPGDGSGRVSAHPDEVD
Procedure: (§1) The activities of the purified enzymes were assayed in 96-well microtiter plates on a plate reader.
(§2) Equation (1) is: [formula]
(§3) B=2,5-diketo-D-gluconic acid concentration;
(§4) Kb=Michaelis Constant for 2,5-diketo-D-gluconic acid;
(§5) Et=Total enzyme concentration.
(§6) This equation is only valid when B<<Kb.
(§7) Cells containing plasmids for some of the mutant reductases were grown up on a 1 liter scale using a 10 ml inoculum from a saturated overnight culture. The cells were grown until absorbance of the culture at 600 nm was approximately 1.0. The cells were then induced by adding IPTG to a final concentration of 1 mM. The cells were harvested after growth at 37° C. for 4 hours. The cells were then pelleted by centrifugation and frozen for later use. At a later date, cells were thawed and lysed with the Bug Buster detergent (Novagen) containing Complete Protease Inhibitor Cocktail Tablets (Roche). The pH was lowered to 5.5 with 20 mM sodium acetate (NaOAc) and NaCl was added to a final concentration of 0.15 M. After 10 minutes with the detergent, the cell debris was removed by centrifugation, and the supernatant was loaded onto disposable chromatography columns containing a 10 ml bed volume of DEAE Cellulose (Sigma) for a batch weak ion exchange step. The resin was washed with 0.15 M NaCl, still in the presence of NaOAc, pH 5.5. The bound proteins were then eluted by two washes with 0.5 M NaCl.

[2] = target: T2, 2,5-diketo-D-gluconic acid reductase A (Corynebacterium sp., wild type SEQ ID NO:1) variant K232Q (Corynebacterium sp., UniProt P06632, K232Q)
T2 construct: GroES fragment (N); made in house; host or cells: E. coli JM109
T2 sequence (P06632 whole entry K232Q, the tested form may be a part): as the sequence (P06632 whole entry K232M, the tested form may be a part) above, with M232Q counted along it
Procedure: as §1, §2, §3, §4, §5, §6, §7

[3] = target: T3, 2,5-diketo-D-gluconic acid reductase A (Corynebacterium sp., wild type SEQ ID NO:1) variant R238E (Corynebacterium sp., UniProt P06632, R238E)
T3 construct: GroES fragment (N); made in house; host or cells: E. coli JM109
T3 sequence (P06632 whole entry R238E, the tested form may be a part): as the sequence (P06632 whole entry K232M, the tested form may be a part) above, with M232K, R238E counted along it
Procedure: as §1, §2, §3, §4
(§8) Kia=Dissociation Constant for NADH;
as §5
(§9) However, the parameters could not be fit in this model with any accuracy, due to the large apparent value of KM for 2,5-diketo-D-gluconic acid, and the low concentration of 2,5-diketo-D-gluconic acid that was used. The 2,5-diketo-D-gluconic acid concentrations were not large enough to saturate the enzyme, so a further mathematical simplification was required. Preliminary fitting of the model indicated both kcat and Kb to be very large in comparison to Ka and Kia Therefore, the rate equation was simplified to the following equation (2): [formula]
as §6
(§10) This equation was then used to fit the kinetic data, with much better results.
(§11) Other comparisons can also be made between the different mutants using these parameters. […]
as §7, with “NaCl. The eluted material was then diluted back to 0.15 M NaCl by the addition of more 20 mM NaOAc buffer. This was then loaded onto a 4.6 mmD/100mml PEEK column (PerSeptive Biosystems) containing 50 μm DEAE Ceramic HyperD F resin (BioSepra) using an FPLC system. The high performance resin was washed with 0.1 M NaCl and the bound proteins were eluted using a linear salt gradient up to 0.4 M NaCl. Active fractions were pooled and the pH was raised to 7.0 using 50 mM bis-Tris. The pooled fractions were then concentrated by ultrafiltration in a stirred cell unit using a polyethersulfone membrane with a 10,000 MW cut-off (Millipore). The concentrate was loaded onto a Superdex-75 gel filtration column (Pharmacia) using 50 mM bis-Tris pH 7.0 with an FPLC system. The active fractions were again pooled. A small sample from the pooled fractions was electrophoresed on a polyacrylamide gel in the presence of SDS in order to insure homogeneity of the final product.” for “NaCl.”
(§12) NADPH and NADH were prepared fresh for each use in kinetic measurements. These reactions were performed in 96-well microtiter plates using a SpectraMax 190 plate reader (Molecular Devices). Varying amounts of cofactor and substrate were added to the wells and reaction was initiated by the addition of the mutant enzyme. The final volume of each reaction was 200 μl, the reactions were buffered with 50 mM bis-Tris pH 7.0, and the temperature was held at 25° C. […] Initial rate data was collected in each well, and a standard curve was generated each day in order to correlate the change in absorbance of the reaction to a change in concentration of cofactors. All measurements were performed in triplicate (at least) and the runs were averaged for use in kinetic modeling.

[4] = target: T4, 2,5-diketo-D-gluconic acid reductase A, wild type, Corynebacterium sp. (ATCC Strain No. 31090; Genbank Accession No. 4699594; SEQ ID NO:1) (Corynebacterium sp., UniProt P06632)
T4 construct: GroES fragment (N); made in house; host or cells: E. coli JM109
T4 sequence (P06632 whole entry, the tested form may be a part): as the sequence (P06632 whole entry K232M, the tested form may be a part) above, with M232K counted along it
Procedure: as §1, §2, §3, §4, §8, §5, §9, §6, §10, §11
as §7, with “NaCl. The eluted material was then diluted back to 0.15 M NaCl by the addition of more 20 mM NaOAc buffer. This was then loaded onto a 4.6 mmD/100mml PEEK column (PerSeptive Biosystems) containing 50 μm DEAE Ceramic HyperD F resin (BioSepra) using an FPLC system. The high performance resin was washed with 0.1 M NaCl and the bound proteins were eluted using a linear salt gradient up to 0.4 M NaCl. Active fractions were pooled and the pH was raised to 7.0 using 50 mM bis-Tris. The pooled fractions were then concentrated by ultrafiltration in a stirred cell unit using a polyethersulfone membrane with a 10,000 MW cut-off (Millipore). The concentrate was loaded onto a Superdex-75 gel filtration column (Pharmacia) using 50 mM bis-Tris pH 7.0 with an FPLC system. The active fractions were again pooled. A small sample from the pooled fractions was electrophoresed on a polyacrylamide gel in the presence of SDS in order to insure homogeneity of the final product.” for “NaCl.”
as §12

[5] = target: T5, 2,5-diketo-D-gluconic acid reductase A (Corynebacterium sp., wild type SEQ ID NO:1) variant R235G (Corynebacterium sp., UniProt P06632, R235G)
T5 construct: GroES fragment (N); made in house; host or cells: E. coli JM109
T5 sequence (P06632 whole entry R235G, the tested form may be a part): as the sequence (P06632 whole entry K232M, the tested form may be a part) above, with M232K, R235G counted along it
Procedure: as §1, §2, §3, §4, §8, §5, §9, §6, §10, §11
as §7, with “NaCl. The eluted material was then diluted back to 0.15 M NaCl by the addition of more 20 mM NaOAc buffer. This was then loaded onto a 4.6 mmD/100mml PEEK column (PerSeptive Biosystems) containing 50 μm DEAE Ceramic HyperD F resin (BioSepra) using an FPLC system. The high performance resin was washed with 0.1 M NaCl and the bound proteins were eluted using a linear salt gradient up to 0.4 M NaCl. Active fractions were pooled and the pH was raised to 7.0 using 50 mM bis-Tris. The pooled fractions were then concentrated by ultrafiltration in a stirred cell unit using a polyethersulfone membrane with a 10,000 MW cut-off (Millipore). The concentrate was loaded onto a Superdex-75 gel filtration column (Pharmacia) using 50 mM bis-Tris pH 7.0 with an FPLC system. The active fractions were again pooled. A small sample from the pooled fractions was electrophoresed on a polyacrylamide gel in the presence of SDS in order to insure homogeneity of the final product.” for “NaCl.”
as §12

[6] = kcat/Ka apparent with NADH, relative to wild type
[7] = versus wild type, NADH as varied substrate

Q: `NC(=O)C1=CN([C@@H]2O[C@H](COP(=O)(O)OP(=O)(O)OC[C@H]3O[C@@H](n4cnc5c(N)ncnc54)[C@H](O)[C@@H]3O)[C@@H](O)[C@H]2O)C=CC1` [NADH] was tested. Which Kd [1] did it give?
A: 3.89 ± 0.23 mM

Q: And the “(kcat/KbKia)/(kcat/KbKia)wt” value [1, 6]?
A: 0.55

Q: What about the Kd [2] of the same molecule?
A: 3.87 ± 0.34 mM

Q: What about the “(kcat/KbKia)/(kcat/KbKia)wt” value [2, 6] of the same molecule?
A: 0.59

Q: What about the Kd [3] of the same molecule?
A: 8.45 ± 1.74 mM

Q: What about the “(kcat/KbKia)/(kcat/KbKia)wt” value [3, 6] of the same molecule?
A: 0.63

Q: What about the “Kia/(Kia)wt” value ([3]; relative to wild type, NADH) of the same molecule?
A: 3.25

Q: What about the “change of apparent kcat” value [3, 7] of the same molecule?
A: doubled

Q: And the “increase of apparent Ka” value [3, 7]?
A: more than 3 fold

Q: And the “(kcat/KbKia)/(kcat/KbKia)wt” value [4, 6]?
A: 1.00

Q: And the Kd ([4]; read-out: Kia)?
A: 2.6 ± 0.16 mM

Q: And the “Kia/(Kia)wt” value ([4]; relative to wild type, NADH)?
A: 1.00

Q: And the Kd [5]?
A: 8.42 ± 0.69 mM

Q: What about the “(kcat/KbKia)/(kcat/KbKia)wt” value [5, 6] of the same molecule?
A: 1.53

Q: What about the “Kia/(Kia)wt” value ([5]; relative to wild type, NADH) of the same molecule?
A: 3.24

Q: And the “increase of apparent Ka” value [5, 7]?
A: more than 3 fold
